Our source for the IC50 values is patent publication US9670208B2, “Serine/threonine kinase inhibitors” (Array BioPharma Inc., priority 2013, dated 2017).

SMILES strings stand for the structures.

For assay [1], the system named is PMA-stimulated P90RSK(Ser380) phosphorylation in HepG2 cells. In words: Cellular P90RSK(Ser380) Phosphorylation Assay. The class given is cell-based. Particulars: Homo sapiens, 1.5 hours compound incubation, PMA 100 ng/mL, normalized to GAPDH, single assay or mean of multiple assays, read-out: Biological Example 2 IC50. The method, then: Inhibition of PMA-stimulated P90RSK(Ser380) phosphorylation was determined by the following in vitro cellular mechanistic assay, which comprises incubating cells with a compound for 1.5 hours and quantifying fluorescent pP90RSK(Ser380) signal on fixed cells and normalizing to GAPDH signal.
HepG2 cells were obtained from ATCC (Manassas, Va.) and grown in DMEM supplemented with 10% fetal bovine serum. Cells were plated in 96-well plates at 35,000 cells/well and allowed to attach overnight at 37° C./5% CO2. Diluted compounds were then added at a final concentration of 0.5% DMSO. After 1.5 hours compound incubation, cells were stimulated with the addition of phorbol 12-myristate 13-acetate (“PMA”) at a final concentration of 100 ng/mL; the PMA stimulation was a 30-minute incubation at 37° C./5% CO2. After the 30-minute PMA stimulation, cells were washed with phosphate buffered saline (“PBS”) and fixed in 3.7% formaldehyde in PBS at room temperature for 15-20 minutes. This was followed by another wash in PBS and then permeabilization in 100% MeOH at room temperature for 10-15 minutes. Following the permeabilization incubation, cells were washed in PBS/0.05% Tween-20, followed by a block in Odyssey blocking buffer (LI-COR Biosciences) for at least 1 hour. Antibodies to phosphorylated P90RSK(Ser380) (Cell Signaling #9335, rabbit monoclonal) and GAPDH (Fitzgerald 10R-G109a, mouse monoclonal) were added to the cells and incubated overnight at 4° C. pP90RSK(Ser380) antibody was used at a 1:250 dilution; GAPDH was used at a 1:10,000 dilution. After washing with PBS/0.05% Tween-20, the cells were incubated with fluorescently-labeled secondary antibodies (Anti-rabbit-Alexa Flour680, Invitrogen Cat#A21109; Anti-mouse-IRDye800CW, Rockland Inc. Cat#610-131-121) for 1 hour. Both secondary antibodies were used at a 1:1000 dilution. Cells were then washed and analyzed for fluorescence at both wavelengths using the Odyssey Infrared Imaging System (LI-COR Biosciences). Phosphorylated P90RSK(Ser380) signal was normalized to GAPDH signal.

The target of assay [2] is human ERK-2 (Mitogen Activated Kinase 1) (Homo sapiens (Human), UniProt P28482). Nature of the assay: ERK-2 Enzymatic Assay. Format: biochemical. As to conditions: ERK-2 enzyme, 25 μM ATP; single assay or mean of multiple assays; read-out: Biological Example 1 IC50.
Chain of human ERK-2 (Mitogen Activated Kinase 1) (P28482 8-360): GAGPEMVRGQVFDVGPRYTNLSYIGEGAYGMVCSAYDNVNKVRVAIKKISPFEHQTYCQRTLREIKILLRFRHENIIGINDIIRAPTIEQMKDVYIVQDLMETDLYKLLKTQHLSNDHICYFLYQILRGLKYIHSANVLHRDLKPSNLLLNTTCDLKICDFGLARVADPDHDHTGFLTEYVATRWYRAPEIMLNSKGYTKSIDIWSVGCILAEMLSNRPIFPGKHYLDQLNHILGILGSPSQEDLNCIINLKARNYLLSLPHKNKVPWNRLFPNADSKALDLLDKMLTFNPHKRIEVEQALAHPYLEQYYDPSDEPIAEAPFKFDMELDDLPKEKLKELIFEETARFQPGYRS

In general, IC50 refers to the concentration needed to halve the response being measured. As to `Cn1nccc1Nc1nccc(-c2ccn3c(C4OCCc5ccccc54)nnc3c2)n1` (centres unmarked) [Example 192, 4-(3-(isochroman-1-yl)-[1,2,4]triazolo[4,3-a]pyridin-7-yl)-N-(1-methyl-1H-pyrazol-5-yl)pyrimidin-2-amine], the IC50 is 37.5 nM in assay [1] and 6 nM in assay [2].

On to `CO[C@@H](c1ccccc1)c1nnc2cc(-c3ccnc(NC4CCOCC4)n3)ccn12` [Example 195, (S)-4-(3-(methoxy(phenyl)methyl)-[1,2,4]triazolo[4,3-a]pyridin-7-yl)-N-(tetrahydro-2H-pyran-4-yl)pyrimidin-2-amine], for which the values for the IC50 in assay [1] and in assay [2] were 39.7 nM and 24.9 nM, respectively.

In the case of `COc1ccc(Cc2nnc3cc(-c4ccnc(NC5CCOCC5)n4)ccn23)cn1` [Example 272, 4-(3-((6-methoxypyridin-3-yl)methyl)-[1,2,4]triazolo[4,3-a]pyridin-7-yl)-N-(tetrahydro-2H-pyran-4-yl)pyrimidin-2-amine], the IC50 was 95.4 nM in assay [1] and 0.9 nM in assay [2].

For `Cn1nccc1Nc1nccc(-c2ccn3c(Cc4cccc(-c5ccccc5)n4)nnc3c2)n1` [Example 275, N-(1-methyl-1H-pyrazol-5-yl)-4-(3-((6-phenylpyridin-2-yl)methyl)-[1,2,4]triazolo[4,3-a]pyridin-7-yl)pyrimidin-2-amine], the IC50 was found to be 20 nM in assay [1] and 1.5 nM in assay [2].

In the case of `Cc1ccnc(Cc2nnc3cc(-c4ccnc(Nc5ccnn5C)n4)ccn23)c1` [Example 276, N-(1-methyl-1H-pyrazol-5-yl)-4-(3-((4-methylpyridin-2-yl)methyl)-[1,2,4]triazolo[4,3-a]pyridin-7-yl)pyrimidin-2-amine], the IC50 in assay [1] is 51.7 nM; in assay [2], 0.9 nM.

`c1ccc(Cc2nnc3cc(-c4ccnc(NC5CCOCC5)n4)ccn23)nc1` [Example 278, 4-(3-(pyridin-2-ylmethyl)-[1,2,4]triazolo[4,3-a]pyridin-7-yl)-N-(tetrahydro-2H-pyran-4-yl)pyrimidin-2-amine]: the IC50 in assay [1] is 67.6 nM; in assay [2], 0.8 nM.

With `Cn1nccc1Nc1cc(-c2ccn3c(CC(C)(C)C)nnc3c2)ccn1` [Example 279, N-(1-methyl-1H-pyrazol-5-yl)-4-(3-neopentyl-[1,2,4]triazolo[4,3-a]pyridin-7-yl)pyridin-2-amine], the IC50 in assay [1] amounted to 51.9 nM; in assay [2], 0.6 nM.

Regarding `Cn1nccc1Nc1cc(-c2ccn3c(CC4CC4)nnc3c2)ccn1` [Example 295, 4-(3-(cyclopropylmethyl)-[1,2,4]triazolo[4,3-a]pyridin-7-yl)-N-(1-methyl-1H-pyrazol-5-yl)pyridin-2-amine], the values for the IC50 in assay [1] and in assay [2] were 117 nM and 0.4 nM, respectively.

On to `Cn1nccc1Nc1nccc(-c2ccn3c(CS(=O)(=O)c4ccccc4)nnc3c2)n1` [Example 306, N-(1-methyl-1H-pyrazol-5-yl)-4-(3-((phenylsulfonyl)methyl)-[1,2,4]triazolo[4,3-a]pyridin-7-yl)pyrimidin-2-amine], for which the IC50 in assay [1] was determined as 63.7 nM; in assay [2] it was 1.8 nM.

`Cn1nccc1Nc1nccc(-c2ccn3c(CSC4CCCC4)nnc3c2)n1` [Example 307, 4-(3-((cyclopentylthio)methyl)-[1,2,4]triazolo[4,3-a]pyridin-7-yl)-N-(1-methyl-1H-pyrazol-5-yl)pyrimidin-2-amine]: the IC50 was found to be 32.2 nM in assay [1] and 3.5 nM in assay [2].

Consider `Cn1nccc1Nc1nccc(-c2ccn3c(CC4CCC(F)(F)CC4)nnc3c2)n1` [Example 317, 4-(3-((4,4-difluorocyclohexyl)methyl)-[1,2,4]triazolo[4,3-a]pyridin-7-yl)-N-(1-methyl-1H-pyrazol-5-yl)pyrimidin-2-amine], for which the figures for the IC50 in assay [1] and in assay [2] were 35.8 nM and 0.9 nM, respectively.

As to `CN(C)C(c1ccc(F)cc1)c1nnc2cc(-c3ccnc(Nc4ccnn4C)n3)ccn12` (centres unmarked) [Example 377, 4-(3-((dimethylamino)(4-fluorophenyl)methyl)-[1,2,4]triazolo[4,3-a]pyridin-7-yl)-N-(1-methyl-1H-pyrazol-5-yl)pyrimidin-2-amine], the IC50 in assay [1] was 82.9 nM; in assay [2], 5.4 nM.

Regarding `Cn1nccc1Nc1nccc(-c2ccn3c(CC45CC6CC(CC(C6)C4)C5)nnc3c2)n1` [Example 379, 4-(3-((1s,3s)-adamantan-1-ylmethyl)-[1,2,4]triazolo[4,3-a]pyridin-7-yl)-N-(1-methyl-1H-pyrazol-5-yl)pyrimidin-2-amine], the IC50 in assay [1] was 24.7 nM; in assay [2] it was 2.4 nM.

Consider `Cn1nccc1Nc1cc(-c2ccn3c(CC4(C(F)(F)F)CC4)nnc3c2)ccn1` [Example 396, N-(1-methyl-1H-pyrazol-5-yl)-4-(3-((1-(trifluoromethyl)cyclopropyl)methyl)-[1,2,4]triazolo[4,3-a]pyridin-7-yl)pyridin-2-amine], for which the IC50 worked out at 35.4 nM in assay [1] and 3.3 nM in assay [2].

For the compound `Fc1ccccc1Cc1nnc2cc(-c3ccnc(NC4CCOCC4)n3)ccn12` [Example 398, 4-(3-(2-fluorobenzyl)-[1,2,4]triazolo[4,3-a]pyridin-7-yl)-N-(tetrahydro-2H-pyran-4-yl)pyrimidin-2-amine], the IC50 in assay [1] stood at 15.5 nM; in assay [2], 3 nM.

On to `Fc1ccc(Cc2nnc3cc(-c4ccnc(NC5CCOCC5)n4)ccn23)cc1` [Example 402, 4-(3-(4-fluorobenzyl)-[1,2,4]triazolo[4,3-a]pyridin-7-yl)-N-(tetrahydro-2H-pyran-4-yl)pyrimidin-2-amine], for which the results for the IC50 in assay [1] and in assay [2] were 27.4 nM and 0.6 nM, respectively.

For `COc1ccc(Cc2nnc3cc(-c4ccnc(NC5CCOCC5)n4)ccn23)cc1F` [Example 403, 4-(3-(3-fluoro-4-methoxybenzyl)-[1,2,4]triazolo[4,3-a]pyridin-7-yl)-N-(tetrahydro-2H-pyran-4-yl)pyrimidin-2-amine], the IC50 in assay [1] stood at 18.6 nM; in assay [2], 0.9 nM.

Turning to `Cn1nccc1Nc1nccc(-c2ccn3cnnc3c2)n1` [Example 411, 4-([1,2,4]triazolo[4,3-a]pyridin-7-yl)-N-(1-methyl-1H-pyrazol-5-yl)pyrimidin-2-amine], the IC50 in assay [1] was determined as 607 nM; in assay [2] it was 11 nM.

On to `CC(=O)NC(Cc1nnc2cc(-c3ccnc(Nc4ccnn4C)n3)ccn12)c1ccc(F)c(Cl)c1` (centres unmarked) [Example 467, N-(1-(3-chloro-4-fluorophenyl)-2-(7-(2-((1-methyl-1H-pyrazol-5-yl)amino)pyrimidin-4-yl)-[1,2,4]triazolo[4,3-a]pyridin-3-yl)ethyl)acetamide], for which the IC50 came to 3350 nM in assay [1] and 1.8 nM in assay [2].

With `CCOc1ccc(Cc2nnc3cc(-c4ccnc(Nc5ccnn5C)n4)ccn23)cn1` [Example 493, 4-(3-((6-ethoxypyridin-3-yl)methyl)-[1,2,4]triazolo[4,3-a]pyridin-7-yl)-N-(1-methyl-1H-pyrazol-5-yl)pyrimidin-2-amine], the IC50 stood at 117 nM in assay [1] and 0.8 nM in assay [2].

On to `Cn1nccc1Nc1nccc(-c2ccn3c(C(=O)N4CCCC4)nnc3c2)n1` [Example 512, (7-(2-((1-methyl-1H-pyrazol-5-yl)amino)pyrimidin-4-yl)-[1,2,4]triazolo[4,3-a]pyridin-3-yl)(pyrrolidin-1-yl)methanone], for which the values for the IC50 in assay [1] and in assay [2] were above 5000 nM and 172 nM, respectively.

Turning to `Cn1nccc1Nc1nccc(-c2ccn3c(CC(C)(O)C4CC4)nnc3c2)n1` (centres unmarked) [Example 563, 2-cyclopropyl-1-(7-(2-((1-methyl-1H-pyrazol-5-yl)amino)pyrimidin-4-yl)-[1,2,4]triazolo[4,3-a]pyridin-3-yl)propan-2-ol], the IC50 was above 5000 nM in assay [1] and 661 nM in assay [2].
